Laboratory results taken from PubChem BioAssay (NCI).
“And” between values parts separate entries of the source, which are not always exact repeats. Identical values can stand only once.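 Assay format: 96-well plates, 48-hour exposure. GI50 = concentration required for 50% inhibition of growth. Definition used: TGI = concentration required for complete inhibition of growth.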

Legend:
Assay in all cases: NCI-60 cell line screen, 48 h
SK-MEL-2 melanoma = test system: SK-MEL-2 melanoma
A549 NSCLC = test system: A549 NSCLC
KM12 colon = test system: KM12 colon
COLO 205 colon = test system: COLO 205 colon
A498 renal = test system: A498 renal
HCT-116 colon = test system: HCT-116 colon
TK-10 renal = test system: TK-10 renal
SN12C renal = test system: SN12C renal
SF-295 CNS = test system: SF-295 CNS
SW-620 colon = test system: SW-620 colon

| Compound | GI50 (SK-MEL-2 melanoma) | TGI (SK-MEL-2 melanoma) | GI50 (A549 NSCLC) | TGI (A549 NSCLC) [µM] | GI50 (KM12 colon) | TGI (KM12 colon) [µM] | GI50 (COLO 205 colon) | TGI (COLO 205 colon) [µM] | GI50 (A498 renal) | TGI (A498 renal) | GI50 (HCT-116 colon) | TGI (HCT-116 colon) [µM] | GI50 (TK-10 renal) | TGI (TK-10 renal) | GI50 (SN12C renal) | TGI (SN12C renal) [µM] | GI50 (SF-295 CNS) | TGI (SF-295 CNS) | GI50 (SW-620 colon) | TGI (SW-620 colon) [µM] |
| --- | --- | --- | --- | --- | --- | --- | --- | --- | --- | --- | --- | --- | --- | --- | --- | --- | --- | --- | --- | --- |
| CCNC(=O)Nc1ccc(-c2nc3c(c(N4CCOC[C@@H]4C)n2)CCN(C2COC2)C3)cc1 | 0.295 µM and 0.392 µM | 3 µM and 3.43 µM | 0.354 µM and 0.384 µM | > 100 | 0.507 µM and 0.403 µM | > 100 | 0.289 µM and 0.268 µM | > 100 | 0.0164 µM and 0.0305 µM | 0.114 µM and 0.2 µM | 1.19 µM and 0.78 µM | > 100 | 0.195 µM and 0.128 µM | 3.86 µM and 3.13 µM | 0.31 µM and 0.285 µM | > 100 | 0.158 µM and 0.166 µM | 1.43 µM and 1.84 µM | 0.793 µM and 0.61 µM | > 100 |
| Nc1cccc(-c2nc3sccn3c2-c2ccnc(NCCCNS(=O)(=O)c3ccc(C(F)(F)F)cc3)n2)c1 | 4.66 µM | 23.4 µM | 4.1 µM | 87.4 | 3.6 µM | 13.8 | 3.32 µM | 13.1 | 3.35 µM | 49.5 µM | 3.55 µM | 30.5 | 11.1 µM | > 100 µM | 4.36 µM | > 100 | 3.08 µM | 10.1 µM | 8 µM | > 100 |
| CN(C)c1cc2c(Nc3ccc4nc(Cc5ccccc5)[nH]c4c3)ncnc2cn1 | > 16.3 µM | > 25 µM | 11.8 µM | > 25 | 13.8 µM | > 25 | > 25 µM | > 25 | > 13.9 µM | > 25 µM | 13.1 µM | > 25 | 4.9 µM | > 25 µM | > 16.1 µM | > 25 | > 12.7 µM | > 18.9 µM | > 21.5 µM | > 25 |
| C[C@@]12CCC[C@@](C)(C(=O)O)C1CC[C@]13C=C(CO)[C@](O)(CCC12)C3 (stereo not given in full) | > 100 µM | > 100 µM | > 100 µM | > 100 | > 100 µM | > 100 | > 100 µM | > 100 | > 100 µM | > 100 µM | > 100 µM | > 100 | > 100 µM | > 100 µM | > 100 µM | > 100 | > 100 µM | > 100 µM | > 100 µM | > 100 |
| COc1c(Nc2ncc(Cl)c(N[C@@H]3[C@H]4C=CC(C4)[C@@H]3C(N)=O)n2)ccc2c1CC[C@@H](N1CCOCC1)CC2 | 3.39 µM | 11.9 µM | 4.02 µM | 17.5 | 4.93 µM | 25.2 | 1.74 µM | 5.5 | 1.39 µM | 4.79 µM | 2.52 µM | 10.3 | 1.7 µM | 15.9 µM | 3.87 µM | 29.2 | 4.47 µM | 17.8 µM | 2.51 µM | 10.2 |
| CCOC(=O)/C(=C/c1cc(OC)ccc1OC)CC(=O)O |  | 34.5 µM |  | > 100 |  | > 100 |  | > 100 |  | > 100 µM |  | > 100 |  | > 100 µM |  | > 100 |  | > 100 µM |  | > 100 |
| C[CH2][Sn]1([CH2]C)[O]C2C(O)OC(CO)C(O)C2[O]1 (stereo not given) | 35.5 µM | > 100 µM | > 100 µM | > 100 | 90.4 µM | > 100 | 35.2 µM | > 100 | 18.9 µM | 42 µM | 77.7 µM | > 100 | 18.4 µM | 36.5 µM | 4.55 µM | 26.5 | > 100 µM | > 100 µM | 20.2 µM | 46.4 |
| c1ccc2c(c1)nnn1c3cnccc3nc21 |  | > 100 µM |  | > 100 |  | 64.8 |  | 46.1 |  | > 100 µM |  | > 100 |  | 94.7 µM |  | > 100 |  | > 100 µM |  | > 100 |
| NC(=O)c1cccc(N)c1 | > 100 µM | > 100 µM | > 100 µM | > 100 | > 100 µM | > 100 | > 100 µM | > 100 | > 100 µM | > 100 µM | > 100 µM | > 100 | > 100 µM | > 100 µM | > 100 µM | > 100 | > 100 µM | > 100 µM | > 100 µM | > 100 |
| COc1cc2c3c(n(CCCN=[N+]=[N-])c(=O)c2cc1OC)-c1ccc(N)cc1C3=O | 0.622 µM | 1.55 µM | 0.374 µM | 2.34 | 0.334 µM | 1.16 | 0.4 µM | 1.23 | 0.0759 µM | 0.484 µM | 0.097 µM | 0.521 | 0.71 µM | 3.93 µM | 0.282 µM | > 27.1 | 0.0835 µM | 1.51 µM | 0.203 µM | 3.69 |
| CCCCCCCCCCCCCCCCc1c(C(=O)OC)[nH]c(=S)[nH]c1=O |  | > 50 µM |  | > 50 |  | > 50 |  | > 50 |  | > 50 µM |  | > 50 |  | > 50 µM |  | > 50 |  | > 50 µM |  | > 50 |
| CCS(=O)(=O)c1ccc(OC)c(Nc2ncc(-c3cccc(-c4ccccc4F)c3)o2)c1 | > 25 µM | > 25 µM | > 25 µM | > 25 | 0.833 µM | > 25 | > 20.1 µM | > 25 | 1.07 µM | 7.54 µM | > 22.9 µM | > 25 | 7.32 µM | > 25 µM | 14.8 µM | > 25 | 10.1 µM | > 25 µM | > 25 µM | > 25 |
| O=C(/C=C\c1cccc([N+](=O)[O-])c1)c1ccccc1 | 3.91 µM | 17.9 µM | 21 µM | 68.2 | 2.36 µM | 5.41 | 2.04 µM | 4.12 | 9.05 µM | 25.1 µM | 1.72 µM | 5.07 | 2.05 µM | 5.32 µM | 3.71 µM | 14.1 | 7.68 µM | 29.5 µM | 1.81 µM | 5.82 |
